# Where two headings read alike, the source gives them in different places. Non-standard residues stand in square brackets, D forms with d. Residues, ends and D or L forms follow the SMILES beside them.
# Experiments:
# [1] = test system: liposomes prepared from E. coli ΔtolA lipid isolate; assay: SPR interaction with immobilized liposomes; conditions: for koff rate constant determined by SPR / Calculated kon rate constant: Liposomes from E. coli ΔtolA lipid isolate; for koff rate constant determined by SPR: 400 s dissociation phase, Figueira et al. 2017 formalism, 25°C; for koff rate constant determined by SPR / Kd: three parallels; for Calculated kon rate constant: calculated from KD and koff (KD=koff/kon); for Kd: read-out: Dissociation constant KD determined by SPR, Liposomes from E. coli ΔtolA lipid isolate on L1 chip, Biacore T200, 25°C, 10 mM HEPES, 150 mM NaCl, steady-state fit
# Text: (§2) By this, the dissociation constant KD and the disassociation rate koff were obtained. These constants allowed us to calculate kon rate, using Eq. 4.
# [2] = test system: bEVs from A. baumannii; assay: SPR interaction with immobilized bEVs; conditions: for koff rate constant determined by SPR / Calculated kon rate constant: A. baumannii bEVs; for koff rate constant determined by SPR: 400 s dissociation phase, Figueira et al. 2017 formalism, 25°C; for koff rate constant determined by SPR / Kd: three parallels; for Kd: read-out: Dissociation constant KD determined by SPR, A. baumannii bEVs on L1 chip, Biacore T200, 25°C, 10 mM HEPES, 150 mM NaCl, steady-state fit; for Calculated kon rate constant: calculated from KD and koff (KD=koff/kon)
# Text: as §2
# [3] = test system: P. aeruginosa K34-7; assay type: cell-based, Pseudomonas aeruginosa
# Protocol: (§1) MIC for all test peptides was determined following EUCAST clinical standard ([Hasselmann, 2003]). Briefly, 3–4 colonies were picked by a cotton swab from freshly plated cultures on agar and resuspended in sterile saline solution. Turbidity of inoculum was adjusted to 0.5 McFarland standard units prior to ×100 dilution in Mueller-Hinton broth. Antimicrobial peptides were dissolved in the broth at the stock concentration of 512 μg/mL. […] Positive control of bacterial culture diluted with broth and negative control of blank broth were included for each bacterial strain. The MICs were determined after incubation of the plates at 37°C for 18 h and red as the concentration of antimicrobial peptide at the next to the last well where bacterial growth was detected.
# [4] = test system: E. coli ΔtolA JW0729-KC; assay type: cell-based, Escherichia coli; conditions: Mueller-Hinton broth, 256 to 2 μg/mL, 37°C, 18 h
# Protocol: as §1
# [5] = test system: bEVs from P. aeruginosa; assay: SPR interaction with immobilized bEVs; conditions: for koff rate constant determined by SPR / Calculated kon rate constant: P. aeruginosa bEVs; for koff rate constant determined by SPR: 400 s dissociation phase, Figueira et al. 2017 formalism, 25°C; for koff rate constant determined by SPR / Kd: three parallels; for Kd: read-out: Dissociation constant KD determined by SPR, P. aeruginosa bEVs on L1 chip, Biacore T200, 25°C, 10 mM HEPES, 150 mM NaCl, steady-state fit; for Calculated kon rate constant: calculated from KD and koff (KD=koff/kon)
# Text: as §2
# [6] = strain not stated; ref Junkes et al., 2008; Bagheri, 2010; Gopal et al., 2012; Finger et al., 2015; Rainsford et al., 2022; Jakubec et al., 2023; cited from earlier work
# [7] = test system: bEVs from E. coli ΔtolA; conditions: for koff rate constant determined by SPR / Calculated kon rate constant: E. coli ΔtolA bEVs; for koff rate constant determined by SPR: 400 s dissociation phase, Figueira et al. 2017 formalism, 25°C; for koff rate constant determined by SPR / Kd: three parallels; for Calculated kon rate constant: calculated from KD and koff (KD=koff/kon); for Kd: read-out: Dissociation constant KD determined by SPR, E. coli ΔtolA bEVs on L1 chip, Biacore T200, 25°C, 10 mM HEPES, 150 mM NaCl, steady-state fit
# Text: as §2
# [8] = test system: bEVs from K. pneumoniae; assay: SPR interaction with immobilized bEVs; conditions: for koff rate constant determined by SPR / Calculated kon rate constant: K. pneumoniae bEVs; for koff rate constant determined by SPR: 400 s dissociation phase, Figueira et al. 2017 formalism, 25°C; for koff rate constant determined by SPR / Kd: three parallels; for Kd: read-out: Dissociation constant KD determined by SPR, K. pneumoniae bEVs on L1 chip, Biacore T200, 25°C, 10 mM HEPES, 150 mM NaCl, steady-state fit; for Calculated kon rate constant: calculated from KD and koff (KD=koff/kon)
# Text: as §2
# [9] = test system: K. pneumoniae K47-25; assay type: cell-based, Klebsiella pneumoniae
# Protocol: as §1
# [10] = test system: A. baumannii K47-42; assay type: cell-based, Acinetobacter baumannii
# Protocol: as §1
# [11] = P. aeruginosa K34-7, clinical multi-resistant, Mueller-Hinton broth, 256 to 2 μg/mL, 37°C, 18 h
# [12] = K. pneumoniae K47-25, clinical multi-resistant, Mueller-Hinton broth, 256 to 2 μg/mL, 37°C, 18 h
# [13] = A. baumannii K47-42, clinical multi-resistant, Mueller-Hinton broth, 256 to 2 μg/mL, 37°C, 18 h
Structure (SMILES),koff rate constant determined by SPR [1] [s⁻¹],Calculated kon rate constant [1] [M⁻¹ s⁻¹],Kd [1] [µM],koff rate constant determined by SPR [2] [s⁻¹],Kd [2] [µM],"MIC [3, 11] [µg/mL]",MIC [4] [µg/mL],koff rate constant determined by SPR [5] [s⁻¹],Kd [5] [µM],koff rate constant determined by SPR [7] [s⁻¹],Calculated kon rate constant [7] [M⁻¹ s⁻¹],Kd [7] [µM],koff rate constant determined by SPR [8] [s⁻¹],Kd [8] [µM],"MIC [9, 12] [µg/mL]",Calculated kon rate constant [2] [M⁻¹ s⁻¹],Calculated kon rate constant [5] [M⁻¹ s⁻¹],Calculated kon rate constant [8] [M⁻¹ s⁻¹],"MIC ([9]; K47-25, 18 h) [µg/mL]","MIC ([10]; K47-42, 18 h) [µg/mL]",other results
"CC(C)C[C@@H]1NC(=O)[C@@H](CCCNC(=N)N)NC(=O)[C@H](CCCCN)NC(=O)[C@H](CC(N)=O)NC(=O)[C@@H](Cc2c[nH]c3ccccc23)NC(=O)[C@H](Cc2c[nH]c3ccccc23)NC1=O [c-LWwNKr, reference compound] (cyclo(LW[dW]NK[dR]))",1.67 ± 0.45,2000 ± 1000,966 ± 170,1.72 ± 0.45,858 ± 61.4,> 256,> 256,1.78 ± 0.54,1040 ± 270,1.42 ± 0.27,3000 ± 1000,406 ± 38.1,1.75 ± 0.55,1080 ± 49,> 256,,,,,,"MIC (without antimicrobial activity) [6]: > 256 µg/mL; MIC [10, 13]: > 256 µg/mL"
NCCCC[C@@H]1NC(=O)[C@H](Cc2c[nH]c3ccccc23)NC(=O)[C@H](CCCCN)NC(=O)[C@H](Cc2c[nH]c3ccccc23)NC(=O)[C@H](CCCCN)NC(=O)[C@H](Cc2c[nH]c3ccccc23)NC1=O [c-WKWKWK] (cyclo(WKWKWK)),0.95 ± 0.20,4000 ± 1000,244 ± 39.5,0.82 ± 0.11,389 ± 32.5,> 256,256,1.52 ± 0.37,749 ± 117,1.42 ± 0.16,4000 ± 1000,381 ± 22.6,1.51 ± 0.54,694 ± 37.3,> 256,2000 ± 1000,2000 ± 1000,2000 ± 1000,,,"MIC [10, 13]: > 256 µg/mL"
N=C(N)NCCC[C@@H]1NC(=O)[C@H](Cc2c[nH]c3ccccc23)NC(=O)[C@H](CCCNC(=N)N)NC(=O)[C@H](Cc2c[nH]c3ccccc23)NC(=O)[C@H](CCCNC(=N)N)NC(=O)[C@H](Cc2c[nH]c3ccccc23)NC1=O [c-WRWRWR] (cyclo(WRWRWR)),,,,,,,128,,,,,,,,,,,,> 256,> 256,"MIC ([3]; K34-7, 18 h): > 256 µg/mL"
NCCCC[C@@H]1NC(=O)[C@H](CCCCN)NC(=O)[C@H](Cc2c[nH]c3ccccc23)NC(=O)[C@H](Cc2c[nH]c3ccccc23)NC(=O)[C@H](Cc2c[nH]c3ccccc23)NC(=O)[C@H](CCCCN)NC1=O [c-WWWKKK] (cyclo(WWWKKK)),0.21 ± 0.01,7000 ± 1000,28.3 ± 4.2,0.63 ± 0.12,100 ± 13.1,,4,0.62 ± 0.07,100 ± 4.1,0.62 ± 0.05,11000 ± 1000,56.5 ± 1,0.37 ± 0.03,21 ± 0.7,,6000 ± 2000,6000 ± 1000,18000 ± 1000,> 256,> 256,
N=C(N)NCCC[C@@H]1NC(=O)[C@H](CCCNC(=N)N)NC(=O)[C@H](Cc2c[nH]c3ccccc23)NC(=O)[C@H](Cc2c[nH]c3ccccc23)NC(=O)[C@H](Cc2c[nH]c3ccccc23)NC(=O)[C@H](CCCNC(=N)N)NC1=O [c-WWWRRR] (cyclo(WWWRRR)),0.51 ± 0.08,11000 ± 1000,47.8 ± 5.2,0.40 ± 0.06,48.7 ± 2.7,,4,0.37 ± 0.04,59 ± 2.6,0.18 ± 0.02,7000 ± 1000,27 ± 1.6,0.28 ± 0.01,35.8 ± 1.3,,8000 ± 2000,6000 ± 1000,8000 ± 1000,256,> 256,

# — publication PMC10751319, “Bacterial extracellular vesicles: towards realistic models for bacterial membranes in molecular interaction studies by surface plasmon resonance” (Frontiers in Molecular Biosciences, 2023)
